Test results from patent US7829063B2, “Development of molecular imaging probes for carbonic anhydrase-IX using click chemistry” (Siemens Medical Solutions USA, Inc., priority 2007, dated 2010).
Where two headings read alike, the source gives them in different places.

Target: T1, CA-IX (Homo sapiens, UniProt Q16790)
T1 construct: His tag (C); purchased R&D Systems Inc. 2188-CA; host or cells: mouse myeloma cell line NS0
Experiment: CA-IX combinatorial library screening, competitive fluorescence-based assay with dansylamide (DNSA)
Assay type: binding
Details: sample concentrations 100 nM and 1000 nM, DNSA 200 μM, screening at 1 μM; for inhibition at 1 µM: 1 h
Description: General. CA-IX human recombinant enzyme was expressed with a C-terminal His tag in a mouse myeloma cell line, NS0 (R&D Systems Inc., catalog number 2188-CA). The human red blood cells were obtained from Research Blood Components, LLC. All absorbance measurements were performed on a SPECTRA MAX M2 plate reader at 25° C. The LC/MS analyses were performed on an Agilent 1100 series LC/MSD (SL) using a 30×2.1 mm Zorbax C8 column with a Phenomenex C18 pre-column. Compound detection was accomplished by electrospray mass spectroscopy in positive selected ion mode (LC/MS-SIM). The elution solvents were acetonitrile and water, contained 0.05% TFA. Nuclear magnetic resonance (NMR) spectra were obtained on a Bruker AMX 300 MHz spectrometer or a Varian 400. 19F NMR spectra were recorded on a Bruker AMX 282.35 MHz or a Varian 400 spectrometer. The mass spectra were recorded on an Agilent 1100 series LC/MSD with electrospray mass spectroscopic detection. Flash column chromatography was performed on Merck silica gel (40-63 μm) using the solvent system indicated. The radiochemical and chemical purities were analyzed by RP-HPLC.
General Combinatorial Library Screening Protocol for CA-IX
The CA-IX screening assay was employed for testing libraries derived from the various “anchor” molecules, using ethoxzolamide as a positive control. The assay was performed at a substrate (dansylamide, DNSA) concentration of 200 μM, and sample concentrations of 100 nM and 1000 nM, respectively. A modified competitive fluorescence-based assay (A. Jain, S. G. Huang, G. M. Whitesides, J. Am. Chem. Soc. 1994, 116, 5057) was used to measure CA-IX activity. The enzymatic assay was carried out in a 96-well plate. To the wells, deionized water, 40 μL of phosphate buffer (250 mM, pH 7.4), 2.4 μL of CA-IX (17 μM), and 2 μL or 20 μL of inhibitor (concentration of 100 nM or 1000 nM) were added to achieve a final volume of 180 μL. Reactions were initiated by adding 20 μL DNSA (200 μM) to each well and the plate was incubated at 25° C. for 1 hour. The fluorescence intensities from each well of the plate were then read at 460 nm using a plate reader with an excitation wavelength of 290 nm.

[1] = Table 1, Libraries 1-3, read-out: In Vitro Binding Assay (Library Screening)
[2] = Table 2, Libraries 4-7, read-out: In Vitro Binding Assay (Library (Screening))

inhibition at 1 µM [1] [%] | inhibition at 1 µM [2] [%] | Structure (SMILES) | also measured
< 40 | – | CC(C)[C@@H](C(=O)O)n1cc(CNC(=O)c2ccc(S(N)(=O)=O)cc2)nn1 [DHK60] | –
– | < 40 | CN(C)Cc1ccc(CSCCNC(=O)[C@H](Cc2ccccc2)n2cc(-c3ccc(S(N)(=O)=O)cc3)nn2)o1 [DHK-2-3] | –
– | < 40 | CC(C)[C@@H](C(=O)NCc1ccc(-c2ccccn2)s1)n1cc(COc2ccc3nc(S(N)(=O)=O)sc3c2)nn1 [DHK-2-29] | –
– | < 40 | CC(C)[C@@H](C(=O)NCCCO)n1cc(-c2ccc(S(N)(=O)=O)cc2)nn1 [DHK181] | –
< 40 | – | NS(=O)(=O)c1ccc(-c2cn(Cc3nc4ccccc4[nH]3)nn2)cc1 [DHK27] | –
– | – | CC(C)[C@@H](C(=O)NCC1COc2ccccc2O1)n1cc(COc2ccc3nc(S(N)(=O)=O)sc3c2)nn1 (stereo partly drawn) [DHK-2-44] | In Vitro Binding Assay (Library Screening) (Table 2, Libraries 4-7): √
– | < 40 | CC(C)[C@@H](C(=O)NCc1nc2ccccc2n1C)n1cc(-c2ccc(S(N)(=O)=O)cc2)nn1 [DHK189] | –
– | < 40 | CCOC(=O)[C@@H](Cc1ccccc1)NC(=O)[C@H](C(C)C)n1cc(-c2ccc(S(N)(=O)=O)cc2)nn1 [DHK175] | –
< 40 | – | CC(C)C(C(=O)NCCc1ccsc1)n1cc(-c2ccc(S(N)(=O)=O)cc2)nn1 (stereo not drawn) [DHK76] | –
< 40 | – | NS(=O)(=O)c1nc2ccc(OCc3cn(C(c4ccccc4)[C@@H](OC/C=C/c4ccccc4)c4ccccc4)nn3)cc2s1 (stereo partly drawn) [DHK138] | –
< 40 | – | NS(=O)(=O)c1ccc(C(=O)NCc2cn(Cn3c(=S)sc4ccccc43)nn2)cc1 [DHK48] | –
< 40 | – | CC(C)[C@@H](C(=O)NCc1ccco1)n1cc(CNC(=O)c2ccc(S(N)(=O)=O)cc2)nn1 [DHK54] | –
< 40 | – | CC(C)(C)c1cc(C(=O)Cn2cc(COc3ccc4nc(S(N)(=O)=O)sc4c3)nn2)cc(C(C)(C)C)c1O [DHK132] | –
< 40 | – | NS(=O)(=O)c1nc2ccc(OCc3cn(C4CCN(C(=O)/C=C/c5ccccc5)CC4)nn3)cc2s1 [DHK144] | –
– | < 40 | NS(=O)(=O)c1nc2ccc(OCc3cn([C@@H](Cc4ccccc4)C(=O)NCc4ccccn4)nn3)cc2s1 [DHK-2-62] | –
– | < 40 | NS(=O)(=O)c1nc2ccc(OCc3cn([C@@H](Cc4ccccc4)C(=O)NCCN4CCN(Cc5ccccc5)CC4)nn3)cc2s1 [DHK-2-74] | –
< 40 | – | CCOC(=O)c1ccc(Cn2cc(CNC(=O)c3ccc(S(N)(=O)=O)cc3)nn2)cc1 [DHK51] | –
– | < 40 | CC(C)[C@@H](C(=O)NCCN1CCN(Cc2ccccc2)CC1)n1cc(-c2ccc(S(N)(=O)=O)cc2)nn1 [DHK191] | –
– | < 40 | NS(=O)(=O)c1nc2ccc(OCc3cn([C@@H](Cc4ccccc4)C(=O)N[C@@H]4c5ccccc5C[C@@H]4O)nn3)cc2s1 [DHK-2-70] | –

inhibition at 1 µM [1] [%] | inhibition at 1 µM [2] [%] | Structure (SMILES) | also measured
< 40 | – | NS(=O)(=O)c1ccc(-c2cn(CC(=O)Nc3nccs3)nn2)cc1 [DHK101] | –
< 40 | – | CC(C)C[C@@H](C(=O)NCc1ccccc1)n1cc(-c2ccc(S(N)(=O)=O)cc2)nn1 [DHK12] | –
< 40 | – | NS(=O)(=O)c1ccc(-c2cn(-c3ccnc4cc(Cl)ccc34)nn2)cc1 [DHK71] | –
< 40 | – | CCCOC(=O)c1ccc(NC(=O)Cn2cc(CNC(=O)c3ccc(S(N)(=O)=O)cc3)nn2)cc1 [DHK57] | –
– | < 40 | COC(=O)[C@H](C)NC(=O)[C@H](Cc1ccccc1)n1cc(-c2ccc(S(N)(=O)=O)cc2)nn1 [DHK-2-10] | –
– | < 40 | NS(=O)(=O)c1nc2ccc(OCc3cn([C@@H](Cc4ccccc4)C(=O)N4CCN(CCO)CC4)nn3)cc2s1 [DHK-2-69] | –
– | < 40 | COC(=O)C(C)NC(=O)[C@H](C(C)C)n1cc(COc2ccc3nc(S(N)(=O)=O)sc3c2)nn1 (stereo partly drawn) [DHK-2-34] | –
< 40 | – | CCCCCC[C@H](O)[C@@H](O)c1ccc(Cn2cc(CNC(=O)c3ccc(S(N)(=O)=O)cc3)nn2)cc1 [DHK85] | –
< 40 | – | CC(C)[C@@H](C(=O)NCc1cc(F)ccc1F)n1cc(-c2ccc(S(N)(=O)=O)cc2)nn1 [DHK11] | –
< 40 | – | COC(=O)C(Cc1ccc(C(=O)O)cc1)n1cc(-c2ccc(S(N)(=O)=O)cc2)nn1 (stereo not drawn) [DHK67] | –
– | < 40 | CC(C)[C@@H](C(=O)NCC1CC1)n1cc(COc2ccc3nc(S(N)(=O)=O)sc3c2)nn1 [DHK-2-37] | –
< 40 | – | Cc1ccc(C)c(CNC(=O)[C@H](Cc2ccccc2)n2cc(COc3ccc4nc(S(N)(=O)=O)sc4c3)nn2)c1 [DHK120] | –
< 40 | – | CC1CCCN(C(=O)C(C(C)C)n2cc(CNC(=O)c3ccc(S(N)(=O)=O)cc3)nn2)C1 (stereo not drawn) [DHK44] | –
< 40 | – | NS(=O)(=O)c1ccc(C(=O)NCc2cn(C(c3ccccc3)[C@@H](OC/C=C/c3ccccc3)c3ccccc3)nn2)cc1 (stereo partly drawn) [DHK90] | –
– | < 40 | NS(=O)(=O)c1nc2ccc(OCc3cn([C@@H](Cc4ccccc4)C(=O)NCc4ccc(-c5ccccn5)s4)nn3)cc2s1 [DHK-2-56] | –
– | < 40 | CCOC(=O)CCN(Cc1ccco1)C(=O)[C@H](Cc1ccccc1)n1cc(-c2ccc(S(N)(=O)=O)cc2)nn1 [DHK-2-16] | –
– | < 40 | NS(=O)(=O)c1nc2ccc(OCc3cn([C@@H](Cc4ccccc4)C(=O)NCC4CC4)nn3)cc2s1 [DHK-2-64] | –
– | < 40 | CC(C)[C@@H](C(=O)NCc1ccc(F)cc1)n1cc(-c2ccc(S(N)(=O)=O)cc2)nn1 [DHK165] | –
– | – | Cc1onc(-c2ccccc2)c1CNC(=O)[C@H](Cc1ccccc1)n1cc(COc2ccc3nc(S(N)(=O)=O)sc3c2)nn1 [DHK-2-66] | In Vitro Binding Assay (Library Screening) (Table 2, Libraries 4-7): √ √

inhibition at 1 µM [1] [%] | inhibition at 1 µM [2] [%] | Structure (SMILES) | also measured
< 40 | – | NS(=O)(=O)c1nc2ccc(OCc3cn(CCn4c(=O)[nH]c5ccccc5c4=O)nn3)cc2s1 [DHK140] | –
– | < 40 | Cc1onc(-c2ccccc2)c1CNC(=O)[C@H](C(C)C)n1cc(-c2ccc(S(N)(=O)=O)cc2)nn1 [DHK182] | –
– | < 40 | CCOC(=O)C(NC(=O)[C@H](C(C)C)n1cc(COc2ccc3nc(S(N)(=O)=O)sc3c2)nn1)C(C)C (stereo partly drawn) [DHK-2-33] | –
< 40 | – | NS(=O)(=O)c1ccc(C(=O)NCc2cn(CC(=O)N3CCN(c4cc(Cl)cc(Cl)c4)CC3)nn2)cc1 [DHK94] | –
– | < 40 | NS(=O)(=O)c1ccc(-c2cn([C@@H](Cc3ccccc3)C(=O)NC3c4ccccc4C[C@@H]3O)nn2)cc1 (stereo partly drawn) [DHK-2-19] | –
< 40 | – | COc1ccc2nc3cc(Cl)ccc3c(NCCCn3cc(-c4ccc(S(N)(=O)=O)cc4)nn3)c2c1 [DHK24] | –
< 40 | – | Cc1ccnc(NC(=O)[C@H](Cc2ccccc2)n2cc(CNC(=O)c3ccc(S(N)(=O)=O)cc3)nn2)c1 [DHK36] | –
– | – | NS(=O)(=O)c1nc2ccc(OCc3cn([C@@H](Cc4ccccc4)C(=O)NCc4ccc(C(F)(F)F)cc4)nn3)cc2s1 [DHK-2-51] | In Vitro Binding Assay (Library Screening) (Table 2, Libraries 4-7): √
< 40 | – | CC(C)[C@@H](C(=O)O)n1cc(-c2ccc(S(N)(=O)=O)cc2)nn1 [DHK66] | –
– | < 40 | NS(=O)(=O)c1ccc(-c2cn([C@@H](Cc3ccccc3)C(=O)N3CCN(c4ncccn4)CC3)nn2)cc1 [DHK-2-4] | –
– | < 40 | CC(C)[C@@H](C(=O)NC1c2ccccc2C[C@@H]1O)n1cc(-c2ccc(S(N)(=O)=O)cc2)nn1 (stereo partly drawn) [DHK186] | –
– | < 40 | NS(=O)(=O)c1ccc(-c2cn([C@@H](Cc3ccccc3)C(=O)N3CCC(CCO)CC3)nn2)cc1 [DHK-2-18] | –
< 40 | – | CC(C)C(C(=O)NCc1cc(F)ccc1F)n1cc(CNC(=O)c2ccc(S(N)(=O)=O)cc2)nn1 (stereo not drawn) [DHK40] | –
– | < 40 | CC(C)[C@@H](C(=O)NC1CCCCC1)n1cc(COc2ccc3nc(S(N)(=O)=O)sc3c2)nn1 [DHK-2-36] | –
– | < 40 | CCOC(=O)C(Cc1ccccc1)NC(=O)[C@H](C(C)C)n1cc(COc2ccc3nc(S(N)(=O)=O)sc3c2)nn1 (stereo partly drawn) [DHK-2-32] | –
– | < 40 | CC(C)[C@@H](C(=O)N1CCN(c2ccccn2)CC1)n1cc(-c2ccc(S(N)(=O)=O)cc2)nn1 [DHK174] | –
– | < 40 | CC(C)[C@@H](C(=O)NCc1ccccn1)n1cc(COc2ccc3nc(S(N)(=O)=O)sc3c2)nn1 [DHK-2-35] | –
– | < 40 | CC(C)[C@@H](C(=O)N1CCN(CCO)CC1)n1cc(-c2ccc(S(N)(=O)=O)cc2)nn1 [DHK185] | –

Structure (SMILES) | inhibition at 1 µM [1] [%] | inhibition at 1 µM [2] [%] | also measured
C=CC1C[N@@]2CCC1CC2[C@@H](c1ccnc2ccc(OC)cc12)n1cc(CNC(=O)c2ccc(S(N)(=O)=O)cc2)nn1 (stereo partly drawn) [DHK87] | < 40 | – | –
